Data: US4743541A, “Luminescent substrate preparation and its use in specific binding assays” (priority 1985, dated 1988)
Where two headings read alike, the source gives them in different places.

Molecular target: T1, horseradish peroxidase (HRP) (Armoracia rusticana, UniProt P00433)
T1 sequence (P00433 31-353): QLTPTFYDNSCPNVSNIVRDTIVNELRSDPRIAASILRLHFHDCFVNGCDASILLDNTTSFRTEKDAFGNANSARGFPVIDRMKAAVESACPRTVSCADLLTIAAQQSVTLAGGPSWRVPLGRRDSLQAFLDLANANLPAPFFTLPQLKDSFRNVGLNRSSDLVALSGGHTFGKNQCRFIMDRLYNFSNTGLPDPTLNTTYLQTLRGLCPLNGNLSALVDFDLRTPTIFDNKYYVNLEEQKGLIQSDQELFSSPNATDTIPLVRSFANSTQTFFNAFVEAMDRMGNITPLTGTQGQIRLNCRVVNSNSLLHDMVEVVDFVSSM
Method: A standardized test procedure for measuring luminol light output has been established. To 0.5 ml of 50 mM borate buffer, pH 9.4, are added 0.5 ml of 40 mM luminol in 45 mM NaOH, pH 11.0; 0.5 ml of 4 mM hydrogen peroxide in 0.01M phosphate buffered saline (PBS), pH 7.0; 0.4 ml of deionized water; and 0.1 ml of 200 mU/ml horseradish peroxidase (HRP) to yield a final 2.0 ml volume containing; 10 mM luminol; 1 mM H2 O2; 12.5 mM borate buffer, pH 9.4; and 20 mU HRP in an aqueous solution having a final pH of 9.4. The enzyme HRP is added last, the solution mixed and relative intensity readings taken on an Ames Fluorocolorimeter (Miles Labs, Inc., Elkhart, IN) at various time points from 1 minute to 2 hours.
The chemical synthesis of luminol and other luminescent substrates use chemicals which can inhibit the catalysts used in luminescent reactions. Two of these inhibitory chemicals known to be used in luminol synthesis were added back to a luminescent reaction using the luminol prepared in Example 1 above.

Row | Compound | Amount in the luminol that can inhibit the production of light | Effect on luminescence yield in the reaction (in words) | Effect on luminescence yield in the reaction | % Reaction (hrp luminol luminescence, pH 9.4, 30 min) [%]
1 | ammonium sulfide | greater than 100 ppm | drastically inhibits | – | –
2 | N.N.O=S(=O)(O)O [Ammonium Sulfate, ammonium sulfate] | – | – | had no effect | 100
3 | NN.O=S(=O)(O)O [Hydrazine Sulfate, hydrazine sulfate] | greater than 100 ppm | drastically inhibits | – | –
